Reference: ChEMBL document CHEMBL5226379, “Hypouricemic Actions of the Pericarp of Mangosteen in Vitro and in Vivo” (J Nat Prod, 2023)
Activity calls are given as the source filed them. No cut-off for these calls is given here.

Tests used:
Mus musculus [1] = assay: (§1) Hypouricemic activity in potassium oxonate-induced hyperuricemic Kunming mouse model assessed as decrease in serum uric acid level at 5 mg/kg, IG pre-administered via gavage twice daily for 5 times followed by potassium oxonate injection for 1 hrs prior to last dose by phosphotungstic acid method; format: functional; details: for Activity: time 5.0 day
Homo sapiens = organism: Homo sapiens; assay: Inhibition of uricase (unknown origin) using uric acid as substrate at 112.5 mg/L preincubated with compounds for 15 mins followed by uric acid addition
Mus musculus [2] = assay: Hypouricemic activity in potassium oxonate-induced hyperuricemic Kunming mouse model assessed as serum XOD level at 10 mg/kg, IG pre-administered via gavage twice daily for 5 times followed by potassium oxonate injection for 1 hrs prior to last dose; format: functional; details: time 5 day
Mus musculus [3] = assay: as §1, with “method relative to control” for “method”; format: functional; parameters: scale not given: the % may be the effect or the level left; details: time 5 day
Mus musculus [4] = assay: Hypouricemic activity in potassium oxonate-induced hyperuricemic Kunming mouse model assessed as serum XDH level at 10 mg/kg, IG pre-administered via gavage twice daily for 5 times followed by potassium oxonate injection for 1 hrs prior to last dose; format: functional; details: time 5 day
Mus musculus [5] = assay: Hypouricemic activity in potassium oxonate-induced hyperuricemic Kunming mouse model assessed as serum urate level at 10 mg/kg, IG pre-administered via gavage twice daily for 5 times followed by potassium oxonate injection for 1 hrs prior to last dose by phosphotungstic acid method; format: functional; details: time 5 day
[6] = molecular target: Xanthine dehydrogenase/oxidase (Homo sapiens, UniProt P47989); assay: Inhibition of XOD (unknown origin) using xanthine as substrate assessed as inhibition of uric acid generation at 0.54 mg/L preincubated for 15 mins followed by xanthine addition and measured by spectrophotometric analysis relative to control
Rattus norvegicus [7] = assay: (§2) Anti-hyperuricemic activity against potassium oxonate-induced hyperuricemic Sprague-Dawley rat model assessed as clearance of urate measured per body surface area of 0.0311 m2 at 12.5 mg/kg, po pre-administered via gavage twice daily for 5 times followed by potassium oxonate injection for 1 hrs prior to last dose and measured after 3 hrs; format: functional; details: time 123 hrs
Rattus norvegicus [8] = assay: as §2, with “serum urea nitrogen level” for “clearance of urate measured per body surface area of 0.0311 m2”; format: functional; details: time 123 hrs
Rattus norvegicus [9] = assay: Anti-hyperuricemic activity against potassium oxonate-induced hyperuricemic Sprague-Dawley rat model assessed as serum urate level at 12.5 mg/kg, po pre-administered via gavage twice daily for 5 times followed by potassium oxonate injection for 1 hrs prior to last dose and measured after 3 hrs; format: functional; details: time 123 hrs
Rattus norvegicus [10] = assay: as §2, with “excretion” for “clearance”, “urate per volume of glomerular filtration” for “urate”; format: functional; details: time 123 hrs
Rattus norvegicus [11] = assay: Anti-hyperuricemic activity against potassium oxonate-induced hyperuricemic Sprague-Dawley rat model assessed as fractional excretion of urate at 12.5 mg/kg, po pre-administered via gavage twice daily for 5 times followed by potassium oxonate injection for 1 hrs prior to last dose and measured after 3 hrs relative to control; format: functional; details: time 123 hrs
Rattus norvegicus [12] = assay: as §2, with “glomerular load” for “clearance”; format: functional; details: time 123 hrs
Rattus norvegicus [13] = assay: Anti-hyperuricemic activity against potassium oxonate-induced hyperuricemic Sprague-Dawley rat model assessed as urine volume at 12.5 mg/kg, po pre-administered via gavage twice daily for 5 times followed by potassium oxonate injection for 1 hrs prior to last dose and measured after 3 hrs; format: functional; details: time 123 hrs
Rattus norvegicus [14] = assay: as §2, with “creatinine” for “urate”; format: functional; details: time 123 hrs
Rattus norvegicus [15] = assay: (§3) Anti-hyperuricemic activity against potassium oxonate-induced hyperuricemic Sprague-Dawley rat model assessed as urinary urate level at 12.5 mg/kg, po pre-administered via gavage twice daily for 5 times followed by potassium oxonate injection for 1 hrs prior to last dose and measured after 3 hrs; format: functional; details: time 123 hrs
Rattus norvegicus [16] = assay: Anti-hyperuricemic activity against potassium oxonate-induced hyperuricemic Sprague-Dawley rat model assessed as urinary urate at 12.5 mg/kg, po pre-administered via gavage twice daily for 5 times followed by potassium oxonate injection for 1 hrs prior to last dose and measured after 3 hrs; format: functional; details: time 123 hrs
Rattus norvegicus [17] = assay: Anti-hyperuricemic activity against potassium oxonate-induced hyperuricemic Sprague-Dawley rat model assessed as serum creatinine level at 12.5 mg/kg, po pre-administered via gavage twice daily for 5 times followed by potassium oxonate injection for 1 hrs prior to last dose and measured after 3 hrs; format: functional; details: time 123 hrs
Mus musculus [18] = assay: Anti-hyperouricemic activity in uric acid-induced hyperuricemic Kunming mouse model assessed as decrease in serum uric acid level at 25 mg/kg, IG pre-administered with uric acid for 30 mins followed by compound treatment and measured after 2 hrs by phosphotungstic acid method; format: functional, organism-based
Rattus norvegicus [19] = assay: as §3, with “creatinine” for “urate”; format: functional; details: time 123 hrs
Mus musculus [20] = assay: Hypouricemic activity in potassium oxonate-induced hyperuricemic Kunming mouse model assessed as decrease in serum XOD level at 1 mg/kg, IG pre-administered via gavage twice daily for 5 times followed by potassium oxonate injection for 1 hrs prior to last dose; format: functional, organism-based; details: time 5.0 day
[21] = Toxicity in Kunming mouse assessed as decrease in serum uric acid level at 1 mg/kg; format: organism-based; details: in vivo

Sequence of Xanthine dehydrogenase/oxidase (P47989 whole entry): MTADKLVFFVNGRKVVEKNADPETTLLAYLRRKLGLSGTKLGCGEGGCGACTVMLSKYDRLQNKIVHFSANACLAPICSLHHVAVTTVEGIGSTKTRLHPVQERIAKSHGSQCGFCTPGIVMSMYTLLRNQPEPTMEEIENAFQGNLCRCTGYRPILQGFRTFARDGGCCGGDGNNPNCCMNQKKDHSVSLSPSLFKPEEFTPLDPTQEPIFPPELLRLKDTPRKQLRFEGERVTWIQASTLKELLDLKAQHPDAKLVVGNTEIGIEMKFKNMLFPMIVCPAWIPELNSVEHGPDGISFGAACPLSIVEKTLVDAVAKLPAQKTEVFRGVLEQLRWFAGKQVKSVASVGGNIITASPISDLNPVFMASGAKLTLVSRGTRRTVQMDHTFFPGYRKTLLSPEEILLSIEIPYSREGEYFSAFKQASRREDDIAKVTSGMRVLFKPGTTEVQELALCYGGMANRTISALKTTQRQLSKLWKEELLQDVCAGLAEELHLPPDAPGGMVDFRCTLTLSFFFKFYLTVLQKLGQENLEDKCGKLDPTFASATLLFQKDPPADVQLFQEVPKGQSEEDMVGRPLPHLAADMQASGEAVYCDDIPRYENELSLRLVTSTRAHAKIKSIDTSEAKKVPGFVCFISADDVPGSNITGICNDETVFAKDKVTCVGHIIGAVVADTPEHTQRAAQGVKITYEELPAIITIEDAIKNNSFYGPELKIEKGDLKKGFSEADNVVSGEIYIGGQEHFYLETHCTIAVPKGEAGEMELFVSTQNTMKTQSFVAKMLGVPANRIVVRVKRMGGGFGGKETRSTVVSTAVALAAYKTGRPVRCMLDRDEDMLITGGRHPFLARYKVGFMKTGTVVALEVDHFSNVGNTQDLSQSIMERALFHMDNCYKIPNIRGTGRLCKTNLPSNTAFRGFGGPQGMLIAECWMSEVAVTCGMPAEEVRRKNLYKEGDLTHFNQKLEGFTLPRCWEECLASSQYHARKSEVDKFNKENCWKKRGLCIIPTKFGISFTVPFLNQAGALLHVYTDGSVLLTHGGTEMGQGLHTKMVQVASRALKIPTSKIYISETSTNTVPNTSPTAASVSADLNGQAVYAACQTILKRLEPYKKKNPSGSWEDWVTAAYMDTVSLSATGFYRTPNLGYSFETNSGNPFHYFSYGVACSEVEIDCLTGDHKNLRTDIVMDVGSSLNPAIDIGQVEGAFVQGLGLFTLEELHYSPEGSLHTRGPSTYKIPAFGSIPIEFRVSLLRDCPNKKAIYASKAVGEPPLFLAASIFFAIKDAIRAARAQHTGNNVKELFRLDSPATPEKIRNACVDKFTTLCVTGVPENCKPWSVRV

In the case of `CC(C)=CCc1c(O)cc2oc3cc(O)c(O)c(CC=C(C)C)c3c(=O)c2c1O`, the Activity (Mus musculus [1]) is reported as “inactive”.
With `COc1c(O)cc2oc3cc4c(c(O)c3c(=O)c2c1CC=C(C)C)C=CC(C)(C)O4` the Activity (Mus musculus [1]) was “inactive”.
For `O=C(O)c1nc(=O)[nH]c(=O)[nH]1`, the inhibition (Homo sapiens) was 96.5%.
For `Oc1ncnc2[nH]ncc12` [ALLOPURINOL], the Activity (Mus musculus [2]) was 11.46 U/L, the “serum uric acid level” value (Mus musculus [1]; time 5 day) was 117.86 µmol/L and the Activity (Mus musculus [3]) was 64%. For the same molecule, the Activity (Mus musculus [4]) was 2.59 U/L, the Activity (Mus musculus [5]) was 180.26 µmol/L and the inhibition at 0.54 µg/mL [6] was 42.7%.
For `CCc1oc2ccccc2c1C(=O)c1cc(Br)c(O)c(Br)c1` [BENZBROMARONE], the Activity (Rattus norvegicus [7]) was 8.4 mL/min, the Activity (Rattus norvegicus [8]) was 9.7 mmol/L and the Activity (Rattus norvegicus [9]) was 258 µmol/L. It also gave an Activity (Rattus norvegicus [10]) of 5.3 µmol/L, an Activity (Rattus norvegicus [11]) of 66% and an Activity (Rattus norvegicus [12]) of 3.8 µmol/min. The Activity (Rattus norvegicus [13]) was 4.6 mL, the Activity (Rattus norvegicus [14]) was 14.6 mL/min and the Activity (Rattus norvegicus [15]) was 2.7 mmol/L. For the same molecule, the Activity (Rattus norvegicus [16]) was 392 µmol, the Activity (Rattus norvegicus [17]) was 56.1 µmol/L and the Activity (Mus musculus [18]) was “Active”. The Activity (Rattus norvegicus [19]) was 1 mmol/L.
For `Cc1nc(-c2ccc(OCC(C)C)c(C#N)c2)sc1C(=O)O` [FEBUXOSTAT], the Activity (Mus musculus [20]) was “Active” and the Activity [21] was “Toxic”.
